Key:
HLA A*3001 = HLA A*3001 (Homo sapiens, UniProt P04439, D140H/D185E/E176W/F33S/G80R/H175R/K168Q/R138E/R41S); experiment: biochemical; assay type: binding
HLA A*3201 = HLA A*3201 (Homo sapiens, UniProt P04439, A270S/D101S/D185E/E176V/E277Q/F133L/G103R/G107R/G231S/H175R/I121M/I218V/I322F/K168Q/L105A/L300P/L318F/M331R/P208A/P217A/Q94H/R106L/R138Q/S129P/T104I/T323A/T345S/V100E/V321M/V358M); experiment: biochemical; assay type: binding
HLA A*6802 = HLA A*6802 (Homo sapiens, UniProt P04439, A269V/D140Y/D185E/E176V/E277Q/E87N/F33Y/G231S/I121R/I166T/I218V/L180W/L300P/L318F/N151K/P208A/P217A/Q86R/R138H/R169H/S129P/T345S/V36M); assay type: binding
HLA B*0702 = HLA B*0702 (Homo sapiens, UniProt P01889); assay type: binding; details: positional scanning combinatorial 9-mer library; normalized to 1.0 for the best residue at each position
HLA B*0801 = HLA B*0801 (Homo sapiens, UniProt P01889, A93T/A95T/D138N/E176V/E187T/K202T/Q94N/R180D/S35A/V36M/Y33D/Y91F); experiment: biochemical; assay type: binding
HLA B*1501 = HLA B*1501 (Homo sapiens, UniProt P01889, A329T/A93T/A95T/C349S/D201E/D98Y/E187L/E204Q/E69M/E70A/K202T/N87E/Q94N/R155S/R180W/S121R/S35A/S48A/V306I/V36M/Y140S/Y91S); experiment: biochemical; assay type: binding
HLA B*1503 = HLA B*1503 (Homo sapiens, UniProt P01889, A329T/A93T/A95T/C349S/D201E/D98Y/E187L/E204Q/K202T/N87E/Q94N/R155S/R180L/S121R/S35A/V306I/V36M/Y140S/Y91S); experiment: biochemical; assay type: binding
HLA B*2705 = HLA B*2705 (Homo sapiens, UniProt P01889, D138H/D201E/E176V/E204Q/G107R/H137Y/K202T/N104T/N87E/Q56L/Q94K/R106L/R155S/R180L/S101D/S121N/S48T/Y140D/Y33H/Y91C); assay type: binding; details: positional scanning combinatorial 9-mer library; normalized to 1.0 for the best residue at each position
HLA B*3501 = HLA B*3501 (Homo sapiens, UniProt P01889, A329T/A93T/A95T/C349S/D201E/D98Y/E176V/E187L/E204Q/E69T/I218V/K202T/L119I/Q94N/R155S/R180L/S121R/S35A/S48A/T118I/V127L/V306I/V36M/Y140S/Y91F); assay type: binding
HLA B*5101 = HLA B*5101 (Homo sapiens, UniProt P01889, A329T/A93T/A95T/C349S/D138N/D201E/D98Y/E187L/E204Q/E69T/G107R/I218V/K202T/L105A/L119W/N104I/Q94N/R106L/R155S/R180L/S101N/S121T/S35A/S48A/V306I/V36M/Y195H/Y91F); assay type: binding
HLA B*5301 = HLA B*5301 (Homo sapiens, UniProt P01889, A329T/A93T/A95T/C349S/D201E/D98Y/E176V/E187L/E204Q/E69T/G107R/I218V/K202T/L105A/L119I/N104I/Q94N/R106L/R155S/R180L/S101N/S121R/S35A/S48A/T118I/V127L/V306I/V36M/Y140S/Y91F); assay type: binding
HLA B*5401 = HLA B*5401 (Homo sapiens, UniProt P01889, A329T/C349S/D138N/D201E/E176V/E187T/E204Q/E69G/I76V/K202T/L119W/R155S/R180L/S121T/S35A/S48A/V127L/V306I/V36M/Y140L); assay type: binding
HLA B*5801 = HLA B*5801 (Homo sapiens, UniProt P01889, A329T/C349S/D201E/D98Y/E176V/E187L/E204Q/E69T/G107R/I218V/I90N/K202T/L105A/L119I/N104I/N87E/Q89R/Q94S/R106L/R155S/R180L/R86G/S101N/S121R/S35A/S48A/T118I/V127L/V306I/V36M/Y140S/Y91M); assay type: binding
HLA B*5802 = HLA B*5802 (Homo sapiens, UniProt P01889, A329T/C349S/D201E/D98Y/E176V/E187L/E204Q/E69T/G107R/I218V/I90N/K202T/L105A/N104I/N87E/Q89R/Q94S/R106L/R155S/R180L/R86G/S101N/S121W/S35A/S48A/V127L/V306I/V36M/Y140S/Y91M); assay type: binding
H-2 D^b = H-2 D^b (Mus musculus, UniProt P01899); assay type: binding
H-2 D^d = H-2 D^d (Mus musculus, UniProt P01900); assay type: binding
H-2 K^k = H-2 K^k (Mus musculus, UniProt P04223); assay type: binding
HLA A*0201 = HLA A*0201 (Homo sapiens, UniProt P04439, D140Y/D185E/D98H/E176V/E277Q/G131W/G231S/I119V/I121R/I166T/I218V/L300P/L318F/N151K/N90K/P208A/P217A/Q86G/Q94H/R138H/R169H/T345S); details: positional scanning combinatorial 9-mer library; normalized to 1.0 for the best residue at each position

H-2 D^b, sequence (P01887 21-119): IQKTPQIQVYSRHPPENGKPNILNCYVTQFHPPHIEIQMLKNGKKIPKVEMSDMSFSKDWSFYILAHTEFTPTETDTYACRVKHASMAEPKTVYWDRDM
H-2 D^b, sequence (P01899 25-362): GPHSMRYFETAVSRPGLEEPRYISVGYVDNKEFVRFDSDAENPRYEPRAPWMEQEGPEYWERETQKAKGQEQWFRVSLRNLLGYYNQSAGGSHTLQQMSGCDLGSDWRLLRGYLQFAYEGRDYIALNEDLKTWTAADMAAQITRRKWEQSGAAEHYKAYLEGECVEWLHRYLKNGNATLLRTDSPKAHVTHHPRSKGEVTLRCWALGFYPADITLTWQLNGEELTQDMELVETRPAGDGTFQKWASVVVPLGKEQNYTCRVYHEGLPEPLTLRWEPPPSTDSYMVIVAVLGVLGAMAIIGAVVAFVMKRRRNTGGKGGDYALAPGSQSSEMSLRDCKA
H-2 K^k, sequence (P01887 21-119): as the sequence (P01887 21-119) above
H-2 K^k, sequence (P04223 22-369): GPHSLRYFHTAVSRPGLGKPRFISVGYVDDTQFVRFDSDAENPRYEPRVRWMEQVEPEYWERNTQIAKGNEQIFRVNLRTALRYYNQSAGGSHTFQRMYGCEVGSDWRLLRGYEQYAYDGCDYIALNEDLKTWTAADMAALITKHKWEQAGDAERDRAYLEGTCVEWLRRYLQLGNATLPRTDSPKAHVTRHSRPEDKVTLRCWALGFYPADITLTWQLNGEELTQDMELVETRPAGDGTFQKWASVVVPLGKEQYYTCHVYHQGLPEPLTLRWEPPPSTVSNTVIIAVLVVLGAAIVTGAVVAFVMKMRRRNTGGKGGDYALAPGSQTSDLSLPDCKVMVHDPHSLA
H-2 D^d, sequence (P01900 whole entry, looked up): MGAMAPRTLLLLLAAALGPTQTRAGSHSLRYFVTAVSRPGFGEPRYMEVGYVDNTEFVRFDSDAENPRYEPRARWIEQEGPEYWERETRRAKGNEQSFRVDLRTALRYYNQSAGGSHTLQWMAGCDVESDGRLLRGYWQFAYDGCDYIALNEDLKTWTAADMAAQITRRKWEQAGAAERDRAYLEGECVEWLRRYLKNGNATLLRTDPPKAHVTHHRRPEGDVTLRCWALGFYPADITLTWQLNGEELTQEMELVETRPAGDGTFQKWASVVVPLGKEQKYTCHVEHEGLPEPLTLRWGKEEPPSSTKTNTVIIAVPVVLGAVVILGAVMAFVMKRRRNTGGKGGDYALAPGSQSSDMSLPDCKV

Row | Sequence | Normalized average relative binding affinity (ARB), HLA A*3001 (HLA A*3001) | Normalized average relative binding affinity (ARB), HLA A*3201 (HLA A*3201) | Normalized average relative binding affinity (ARB), HLA A*6802 (HLA A*6802) | Normalized average relative binding affinity (ARB), HLA B*0702 (HLA B*0702) | Normalized average relative binding affinity (ARB), HLA B*0801 (HLA B*0801) | Normalized average relative binding affinity (ARB), HLA B*1501 (HLA B*1501) | Normalized average relative binding affinity (ARB), HLA B*1503 (HLA B*1503) | Normalized average relative binding affinity (ARB), HLA B*2705 (HLA B*2705) | Normalized average relative binding affinity (ARB), HLA B*3501 (HLA B*3501) | Normalized average relative binding affinity (ARB), HLA B*5101 (HLA B*5101) | Normalized average relative binding affinity (ARB), HLA B*5301 (HLA B*5301) | Normalized average relative binding affinity (ARB), HLA B*5401 (HLA B*5401) | Normalized average relative binding affinity (ARB), HLA B*5801 (HLA B*5801) | Normalized average relative binding affinity (ARB), HLA B*5802 (HLA B*5802) | Normalized average relative binding affinity (ARB), H-2 Db (H-2 D^b) | Normalized average relative binding affinity (ARB), H-2 Dd (H-2 D^d) | Normalized average relative binding affinity (ARB), H-2 Kk (H-2 K^k) | Normalized average relative binding affinity (ARB), HLA A*0201 (HLA A*0201)
1 | XXXDXXXXX [3064.0063] | 0.22 | 0.14 | 0.31 | 0.16 | 0.072 | 0.30 | 0.13 | 0.26 | 0.18 | 0.74 | 0.26 | 0.28 | 0.17 | 0.069 | 0.072 | 0.30 | 0.46 | 0.91
2 | XXLXXXXXX [3064.0050] | 0.033 | 0.58 | 0.10 | 0.071 | 0.21 | 0.18 | 0.043 | 0.55 | 0.43 | 0.54 | 0.59 | 0.040 | 0.61 | 0.59 | 1.0 | 0.0040 | 0.70 | 0.57
3 | CXXXXXXXX [3064.0002] | 0.097 | 0.11 | 0.13 | 0.19 | 0.16 | 0.19 | 0.20 | 0.11 | 0.19 | 0.19 | 0.061 | 0.027 | 0.18 | 0.048 | 0.16 | 0.26 | 0.51 | 0.032
4 | RXXXXXXXX [3064.0015] | 1.0 | 0.97 | 0.044 | 1.0 | 0.19 | 0.67 | 0.56 | 1.0 | 0.045 | 0.028 | 0.020 | 0.027 | 0.79 | 0.52 | 0.12 | 0.41 | 0.11 | 0.084
5 | GXXXXXXXX [3064.0006] | 0.11 | 0.14 | 0.022 | 0.15 | 0.088 | 0.43 | 0.063 | 0.60 | 0.030 | 0.028 | 0.0086 | 0.0071 | 0.069 | 0.14 | 0.096 | 0.15 | 0.14 | 0.089
6 | XFXXXXXXX [3064.0025] | 0.30 | 0.012 | 0.017 | 0.0028 | 0.14 | 0.099 | 0.0062 | 0.0016 | 0.012 | 0.086 | 0.018 | 0.00055 | 0.097 | 0.030 | 0.086 | 0.074 | 0.016 | 0.0041
